Read-outs that look alike come from different tables or passages of the source.
What was measured:
[1] = tested on: Sprague Dawley rats; assay: Extinction of fear-potentiated startle in rats with post-extinction training pre-sleep administration; format: in vivo, rat; conditions: higher values signify greater extinction
Procedure: Subjects. Twenty male, Sprague Dawley rats (300-350 grams) were used. Rats were placed in cages used to measure the acoustic startle reflex (Cassella, J. V., and Davis, M. “The design and calibration of a startle measurement system”, Physiology & Behavior (1986), 36, pp. 377-383) and, after a 5 minute acclimation period, presented with 50 startle stimuli (50-ms duration, 5-ms rise-decay time), 10 at each of five intensities (95, 100, 105, 110, and 115 dB) in a semi-random order at a 30-s interstimulus interval. The animals were subsequently divided into four groups of five rats, each having similar mean startle amplitudes across the 10 stimuli at the five intensities.
Fear conditioning and testing. On two consecutive training days, animals were placed in the startle chambers and after a 5-min acclimation period, presented with 10 light shock pairings. The shock was presented during the last 500 ms of the 3,700-ms light at an average intertrial interval of 3 minutes (range, 2-4 min). No further shocks were presented thereafter. Twenty-four hours after the second training day, rats were placed in the startle chamber and presented with 30 95-dB startle stimuli (leaders), followed by the first of 10 startle stimuli presented 3.2 seconds after onset of the light that had previously been paired with a shock, and 10 more startle stimuli alone. The two trial types (light-startle and startle-alone) were presented in an irregular balanced order at a 30-s interstimulus interval. Based on the mean difference in startle amplitude between the mean startle amplitude across the last 10 leaders and the mean startle amplitude across the light-startle trials, a percent fear-potentiated startle was computed as: [(mean difference in startle amplitude between the light-startle and leaders)/mean leaders]×100. The rats were divided into four groups.
Extinction training with or without sleep deprivation. […] Although sleep was not measured directly, the rats were observed on closed-circuit TV and appeared to sleep (rats tend to sleep in the day, when the lights are on). […]

[2] = tested on: Mycobacterium tuberculosis strains; conditions: typical Mycobacterium tuberculosis strains; cited from earlier work
[3] = tested on: rats; conditions: cited from earlier work
[4] = tested on: subjects with acrophobia; conditions: DCS administered prior to virtual reality therapy sessions, versus placebo; cited from earlier work
[5] = cited from earlier work
[6] = tested on: subjects chronically ill with tuberculosis; conditions: chronic dosing schedules, typical tuberculosis doses 500-1000 mg/day; cited from earlier work

Compound: N[C@@H]1CON=C1O [DCS, D-cycloserine]
- mean change in percent fear-potentiated startle prior to and after extinction training ([1]; DCS-DCS group: 15 mg/kg DCS i.p. 15 min before extinction training and again pre-sleep 4 h after training, n=3): 176%
- mean change in percent fear-potentiated startle prior to and after extinction training ([1]; DCS-Sal group: 15 mg/kg DCS i.p. 15 min before extinction training, saline pre-sleep 4 h after training, n=3): 78%
- mean change in percent fear-potentiated startle prior to and after extinction training ([1]; Sal-DCS group: saline i.p. 15 min before extinction training, 15 mg/kg DCS i.p. pre-sleep 4 h after training, n=4): 164%
- minimum inhibitory concentrations (MIC) in vitro [2]: 6 to 25 µg/mL
- effect on extinction learning ([3]; DCS injected after extinction training): facilitated extinction learning
- effect on extinction learning ([3]; delay between extinction training and administration of DCS increased to four hours): no significant facilitatory effect
- number of therapy sessions required to reach a defined clinical endpoint [4]: significant reduction
- peak serum concentrations ([5]; child subject, sub-antimicrobial dose less than or equal to 2 mg/kg): less than or equal to 5 μg/mL
- serum concentrations generally maintained ([5]; dose of 500 mg/day, chronic treatment of tuberculosis): 25000 to 30000 ng/mL
- time of peak serum concentrations after dosing ([5]; known oral capsules): 3 to 8 h
- peak serum concentrations ([5]; sub-antimicrobial dose, less than or equal to 2 mg/kg, substantial variability between subjects): less than or equal to 5 μg/mL
- recorded side effects [6]: drowsiness, depression, headache, confusion, tremor, vertigo, and memory difficulties, paresthesias, and seizure

From patent US7655655B1, “Method for facilitating extinction training using D-cycloserine” (priority 2009, dated 2010)
